Assay results published in patent publication US10221163B2 (priority 2015, dated 2019).
Where two headings read alike, the source gives them in different places.

What was measured:
[1] = biological target: VIM-1 (Pseudomonas aeruginosa (strain ATCC 15692 / DSM 22644 / CIP 104116 / JCM 14847 / LMG 12228 / 1C / PRS 101 / PAO1), UniProt A0A0F7KYQ8); experiment: biochemical; details: CCF2-FA substrate, 30 pM enzyme, 2 hours at 25° C.
Procedure, shortened: (§1)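 Fluorescence assay of metallo-β-lactamase activity using CCF2-FA, a cephalosporin-linked 7-hydroxycoumarin–fluorescein substrate. Inhibitor, enzyme and substrate were incubated together for 2 hours at 25° C. IC50 came from a 4-parameter fit of inhibition versus inhibitor concentration.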

[2] = tested on: Pseudomonas aeruginosa MB9798 vs MB9799
Procedure, shortened: (§2)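 P. aeruginosa PAO1-derived IMP-1 strains, efflux+ MB9798 and efflux− MB9799, tested by standard microbroth MIC with imipenem and/or ceftazidime fixed, usually at CLSI breakpoint, plus fixed class A/C β-lactamase inhibitor against AmpC. Inhibitor titrated; concentration restoring susceptibility recorded; MB9798/MB9799 fold difference indicates efflux.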

[3] = biological target: NDM-1 (Klebsiella pneumoniae, UniProt C7C422); experiment: biochemical; assay type: biochemical; details: fluorescence assay, CCF2-FA substrate, 1 pM enzyme, 2 hours at 25° C.; read-out: NDM-1 IC50
Procedure, shortened: as §1

[4] = biological target: IMP-1 (Serratia marcescens, UniProt P52699); experiment: biochemical; assay type: biochemical; details: fluorescence assay, CCF2-FA substrate, 2 pM enzyme, 2 hours at 25° C.; read-out: IMP-1 IC50
Procedure, shortened: as §1

[5] = tested on: Pseudomonas aeruginosa efflux+ (MB9798), IMP-1; assay type: cell-based; set-up: Concentration of metallo-β-lactamase inhibitor which restores susceptibility of efflux + (MB9798) strain to imipenem: unit not given here; details: C, D serine β-lactamase inhibitor closely related to relebactam; for Concentration of metallo-β-lactamase inhibitor which restores susceptibility of efflux + (MB9798) strain to imipenem: imipenem at 2 μg/mL, in the presence of a class A; for P. aeruginosa expressing IMP-1, efflux + (MB9798) MITC95: concentration restoring susceptibility to imipenem at 2 μg/mL in the presence of a class A
Procedure, shortened: as §2

[6] = tested on: Serratia marcescens expressing IMP-1 (CL5741); assay type: cell-based; details: for Serratia marcescens MITC95: IMP-1 strain CL5741, with imipenem 1 μg/ml, 95% inhibition of growth; for Serratia marcescens expressing IMP-1 (CL5741) MITC95: with imipenem 1 μg/ml, 95% inhibition of bacterial growth
Procedure, shortened: (§3)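 Clinical isolates (E. coli NDM-1, S. marcescens IMP-1, K. pneumoniae VIM-1) were diluted 1:100 from saline suspension into 1.1×CAMHB and exposed to test compound with imipenem at 1 μg/ml. Plates were incubated at 35° C for 22 hours to 24 hours, and growth was read by absorbance.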

[7] = tested on: Escherichia coli expressing NDM-1 (CLB30005, CLB30016); assay type: cell-based; details: with imipenem 1 μg/ml; for Escherichia coli MITC95: NDM-1 strain, 95% inhibition of growth; for Escherichia coli expressing NDM-1 (CLB30016) MITC95: 95% inhibition of bacterial growth
Procedure, shortened: as §3

[8] = tested on: Klebsiella pneumoniae expressing VIM-1 (IHMA599644); assay type: cell-based; details: for Klebsiella pneumoniae MITC95: VIM-1 strain IHMA599644, with imipenem 1 μg/ml, 95% inhibition of growth; for Klebsiella pneumoniae expressing VIM-1 (IHMA599644) MITC95: with imipenem 1 μg/ml, 95% inhibition of bacterial growth
Procedure, shortened: as §3

[9] = tested on: Pseudomonas aeruginosa efflux− (MB9799), IMP-1; assay type: cell-based; details: C, D serine β-lactamase inhibitor closely related to relebactam; for Concentration of metallo-β-lactamase inhibitor which restores susceptibility of efflux − (MB9799) strain to imipenem: imipenem at 2 μg/mL, in the presence of a class A; for P. aeruginosa expressing IMP-1, efflux − (MB9799) MITC95: concentration restoring susceptibility to imipenem at 2 μg/mL in the presence of a class A
Procedure, shortened: as §2

[10] = fluorescence assay, read-out: VIM-1 IC50
[11] = fold difference between efflux+ (MB9798) and efflux− (MB9799) strains, imipenem at 2 μg/mL
[12] = ratio MITC95 PA_9798/MITC95 PA_9799

Chain of NDM-1 (C7C422 whole entry, looked up, species assumed): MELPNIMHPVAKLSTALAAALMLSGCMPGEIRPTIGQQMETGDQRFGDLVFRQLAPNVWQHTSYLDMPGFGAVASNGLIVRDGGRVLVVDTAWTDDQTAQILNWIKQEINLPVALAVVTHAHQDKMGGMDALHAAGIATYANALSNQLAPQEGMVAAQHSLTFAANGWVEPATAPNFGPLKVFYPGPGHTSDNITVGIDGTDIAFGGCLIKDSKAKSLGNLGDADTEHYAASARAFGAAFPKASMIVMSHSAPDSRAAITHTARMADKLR
Chain of IMP-1 (P52699 whole entry, looked up, species assumed): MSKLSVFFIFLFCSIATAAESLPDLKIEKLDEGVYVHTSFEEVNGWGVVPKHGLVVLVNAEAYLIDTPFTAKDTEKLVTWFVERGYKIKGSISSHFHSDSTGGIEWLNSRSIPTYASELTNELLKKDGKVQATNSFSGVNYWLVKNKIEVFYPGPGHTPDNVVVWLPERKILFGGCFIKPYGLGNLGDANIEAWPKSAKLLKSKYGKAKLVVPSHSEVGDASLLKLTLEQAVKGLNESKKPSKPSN

Structure (SMILES) | IC50 [1, 10] [pM] | Efflux ratio [2, 11] | IC50 [3] [pM] | IC50 [4] [pM] | Concentration of metallo-β-lactamase inhibitor which restores susceptibility of efflux + (MB9798) strain to imipenem [5] | Serratia marcescens MITC95 [6] [µM] | Escherichia coli MITC95 [7] [µM] | Klebsiella pneumoniae MITC95 [8] [µM] | Concentration of metallo-β-lactamase inhibitor which restores susceptibility of efflux − (MB9799) strain to imipenem [9] | IC50 ([1]; VIM-1 IC50, fluorescence assay) [pM] | Efflux ratio [2, 12] | P. aeruginosa expressing IMP-1, efflux + (MB9798) MITC95 [5] [µM] | P. aeruginosa expressing IMP-1, efflux − (MB9799) MITC95 [9] [µM] | IC50 ([1]; read-out: VIM-1 IC50, fluorescence assay) [pM] | Serratia marcescens expressing IMP-1 (CL5741) MITC95 [6] [µM] | Escherichia coli expressing NDM-1 (CLB30016) MITC95 [7] [µM] | Klebsiella pneumoniae expressing VIM-1 (IHMA599644) MITC95 [8] [µM]
Nc1ccc(-c2ccc(S(=O)(=O)NC[C@H]3CCCN3)c(S(N)(=O)=O)c2-c2nn[nH]n2)cn1 [Example 489, (R)-4-(6-aminopyridin-3-yl)-N1-(pyrrolidin-2-ylmethyl)-3-(2H-tetrazol-5-yl)benzene-1,2-disulfonamide] | 267 | 2.00 | 246 | 566 | 1.563 | 0.3906 | 0.3906 | 1.563 | 0.7813 | – | – | – | – | – | – | – | –
NCCNc1cc(-c2ccc(S(=O)(=O)N[C@@H]3CCNC3)c(S(N)(=O)=O)c2-c2nn[nH]n2)ccn1 [Example 458, (R)-4-(2-((2-aminoethyl)amino)pyridin-4-yl)-N1-(pyrrolidin-3-yl)-3-(2H-tetrazol-5-yl)benzene-1,2-disulfonamide] | 132 | 4.00 | 532 | 3770 | 3.125 | 1.563 | 0.7813 | 1.563 | 0.7813 | – | – | – | – | – | – | – | –
Nc1ccc(-c2ccc(S(=O)(=O)N[C@H]3CNC[C@H]3O)c(S(N)(=O)=O)c2-c2nn[nH]n2)cn1 [Example 410] | 374 | 1.00 | 322 | 682 | 0.7813 | 0.7813 | 0.3906 | 1.563 | 0.7813 | – | – | – | – | – | – | – | –
Nc1ncc(-c2cc(-c3ccc(S(=O)(=O)N[C@@H]4CCNC4)c(S(N)(=O)=O)c3-c3nnn[nH]3)ccn2)[nH]1 [Example 440, (R)-4-(2-(2-Amino-1H-imidazol-5-yl)pyridin-4-yl)-N^1-(pyrrolidin-3-yl)-3-(1H-tetrazol-5-yl)benzene-1,2-disulfonamide] | – | 2.00 | 333 | 3960 | 1.563 | 1.563 | 0.7813 | 1.563 | 0.7813 | 571 | – | – | – | – | – | – | –
C[C@H](CN)NS(=O)(=O)c1ccc(-c2cccnc2NCCN)c(-c2nn[nH]n2)c1S(N)(=O)=O [Example 460, (R)-4-(2-((2-aminoethyl)amino)pyridin-3 yl)-N1-(1-aminopropan-2-yl)-3-(2H-tetrazol-5-yl)benzene-1,2-disulfonamide] | 148 | 2.00 | 603 | 4630 | 3.125 | 1.563 | 0.7813 | 1.563 | 1.563 | – | – | – | – | – | – | – | –
NCc1nc2c(-c3ccc(S(=O)(=O)N[C@@H]4CCNC4)c(S(N)(=O)=O)c3-c3nn[nH]n3)cccc2s1 [Example 276, (R)-4-(2-(aminomethyl)benzo[d]thiazol-4-yl)-N1-(pyrrolidin-3-yl)-3-(2H-tetrazol-5-yl)benzene-1,2-disulfonamide] | – | – | 56.1 | 542 | – | 0.7813 | 1.172 | 0.7813 | – | 88.1 | 1.00 | 0.7813 | 0.7813 | – | – | – | –
NCCNS(=O)(=O)c1ccc(-c2cccc(C(=O)NC[C@H](O)CN)c2)c(-c2nn[nH]n2)c1S(N)(=O)=O [Example 346] | – | – | 1490 | 3650 | – | 1.563 | 1.563 | 1.563 | – | 467 | 2.00 | 1.563 | 0.7813 | – | – | – | –
Nc1ccc(-c2ccc(S(=O)(=O)NC3CC(N)C3)c(S(N)(=O)=O)c2-c2nn[nH]n2)cn1 [Example 483, N1-((1R,3R)-3-aminocyclobutyl)-4-(6-aminopyridin-3-yl)-3-(2H-tetrazol-5-yl)benzene-1,2-disulfonamide] | – | 1.00 | 92.7 | 330 | 0.7813 | 0.7813 | 1.758 | 1.563 | 0.7813 | – | – | – | – | 115 | – | – | –
NCC(CN)NS(=O)(=O)c1ccc(-c2cccnc2N)c(-c2nn[nH]n2)c1S(N)(=O)=O [Example 210, 4-(2-aminopyridin-3-yl)-N1-(1,3-diaminopropan-2-yl)-3-(2H-tetrazol-5-yl)benzene-1,2-disulfonamide] | 197 | – | 126 | 1500 | – | – | – | – | – | – | 2.00 | 3.125 | 1.563 | – | 0.7813 | 0.1953 | 3.125
NCCNS(=O)(=O)c1ccc(-c2cc(F)cc3[nH]c(N)nc23)c(-c2nnn[nH]2)c1S(N)(=O)=O [Example 180, 4-(2-amino-6-fluoro-1H-benzo[d]imidazol-4-yl)-N^1-(2-aminoethyl)-3-(1H-tetrazol-5-yl)benzene-1,2-disulfonamide] | 161 | – | 47.2 | 387 | – | – | – | – | – | – | 0.50 | 0.3906 | 0.7813 | – | 0.7813 | 0.3906 | 1.563
